# Source: article PMC12297997, “Differential Emodepside Efficacy in Drug-Resistant and Drug-Susceptible Ancylostoma caninum Highlights Variability in Potassium Channel Activity” (Tropical Medicine and Infectious Disease, 2025)
# Read-outs that look alike come from different tables or passages of the source.
# How the values were obtained:
# [1] = tested on: Ancylostoma caninum L3, triple-anthelmintic-resistant (BCR) isolate; assay: In vitro L3 larval survival assay, triple-anthelmintic-resistant BCR isolate; type: cell-based; settings: for Difference in mean survival between BCR and WMD: BCR versus WMD L3, across all tested concentrations (4–40 µg/mL), two-tailed unpaired t-test, p < 0.0001
# Method: (§1) The wild-type (WMD) and triple-anthelmintic-resistant (BCR) isolates of A. caninum used in this study have been previously described. […] Both isolates were maintained in beagles according to established protocols.
# (§2) Stock solutions of pyrantel, ivermectin, and emodepside were prepared in appropriate solvent mixtures of DMSO and BU buffer (50 mM Na2HPO4, 22 mM KH2PO4, 70 mM NaCl, pH 6.8). To account for solubility differences, pyrantel was prepared in 20% DMSO, ivermectin in 4% DMSO, and emodepside in 25% DMSO. Penitrem A was dissolved in 100% DMSO to make a 500 µM stock solution. A vehicle control solution was also prepared for each drug, containing the maximum DMSO concentration used in the stock solutions to ensure that solvent effects across treatments were adequately controlled.
# (§3) Infective A. caninum L3 were collected from coproculture at least 7 days post-culture using a modified Baermann method and stored in BU in a 50 mL culture flask at room temperature for up to four weeks prior to use. The survival assay to evaluate the response of A. caninum L3 to various anthelmintics was adapted from a previously established motility assessment study.
# (§4) Prior to use, L3 were surface sterilized by incubation in 1% (v/v) HCl for 30 min, followed by two washes with sterile BU buffer. The sterilized larvae were resuspended in BU to a concentration of 75 L3 per 90 µL. Larvae were transferred in aliquots of 90 µL to individual wells in a 96-well plate, and 10 µL of the appropriate drug or control solution was added to each well, bringing the final volume to 100 µL. Plates were incubated at room temperature in the dark for 24 h.
# (§5) Following incubation, survival was assessed by adding 50 microliters of 50° C water to each well immediately before counting. […] For each well, the total number of living and dead L3 were counted, and percent survival was calculated as below:(1) Survival (%)=[…]
# (§6) Microsoft Excel was used to normalize raw survival percentages to their respective controls and calculate standard deviation for each condition. Statistical analysis was performed using GraphPad Prism (ver. 10, GraphPad Software, La Jolla, CA, USA). Using the mean, standard deviation, and sample size calculated in Excel, multiple unpaired t-tests were performed to determine the individual variance in means between WMD and BCR.
# [2] = cited from earlier work; for Corresponding Cmax: po
# [3] = tested on: Ancylostoma caninum L3, drug-susceptible (WMD) isolate; assay: In vitro L3 larval survival assay, drug-susceptible WMD isolate; type: cell-based
# Method: as §1, §2, §3, §4, §5, §6
# MADR A. caninum = tested on: MADR A. caninum; set-up: method as in PMID 36520649; settings: dogs infected with MADR A. caninum; cited from earlier work
# [4] = stated without reference; cited from earlier work
# [5] = tested on: Ancylostoma caninum L3, triple-anthelmintic-resistant (BCR) isolate; assay: Emodepside + penitrem A survival assay (SLO-1 modulation), BCR isolate; type: cell-based; settings: 0.25 µM penitrem A + emodepside 7.5 µg/mL, 24 h, mean ± SD
# Method: as §4, §5
# (§7) To further investigate the specific mechanism of emodepside action, the SLO-1 channel inhibitor penitrem A was co-incubated with emodepside. The concentration of emodepside was kept constant (7.5 µg/mL) while that of penitrem A was titrated from 1 µM to 0.05 µM. […] Survival was assessed as above.
# as §6, with “Statistical analysis was performed using GraphPad Prism (ver. 10, GraphPad Software, La Jolla, CA, USA).” left out
# [6] = tested on: Ancylostoma caninum L3, drug-susceptible (WMD) isolate; assay: Emodepside + penitrem A survival assay (SLO-1 modulation), WMD isolate; type: cell-based; settings: 0.25 µM penitrem A + emodepside 7.5 µg/mL, 24 h, mean ± SD
# Method: as §4, §5, §7
# as §6, with “Statistical analysis was performed using GraphPad Prism (ver. 10, GraphPad Software, La Jolla, CA, USA).” left out
molecule,measurement,setting,value
"CN1CCCN=C1/C=C/c1cccs1 [Pyrantel, pyrantel pamoate]","Percent survival of L3, normalized to vehicle control","[1]; BCR L3, 100 µg/mL, 24 h, room temperature, dark, mean ± SD, difference to WMD not significant (p = 0.054)",59.2±10.4%
same,Mortality of L3,"[1]; BCR L3, 10–50 µg/mL, 24 h",almost no mortality
same,Cmax,"[2]; in vivo, 100 mg/kg",110 ng/mL
same,Corresponding Cmax,[2]; in vivo,110 ng/mL
same,"Percent survival of L3, normalized to vehicle control","[3]; 100 µg/mL, 24 h, room temperature, dark, mean ± SD",43.9±13.7%
same,Mortality of L3,"[3]; 10–50 µg/mL, 24 h",almost no mortality
emodepside,Surviving L3,"[1]; BCR L3, 30 µg/mL (maximum dose tested), 24 h",none
same,IC50 (nonlinear regression of percent survival vs log concentration),"[1]; BCR L3, 24 h survival",1.77 µg/mL
same,Percent survival of L3,"[1]; BCR L3, starting at 7.5 µg/mL, 24 h",killed all BCR larvae
same,Difference in percent survival between WMD and BCR,"[1]; WMD versus BCR L3, 3 µg/mL (greatest difference)",21.8±4.4
same,Corresponding Cmax,[2]; in vivo,37 ng/mL
same,"Percent survival of L3, normalized to vehicle control","[3]; 7.5 µg/mL, 24 h, mean ± SD",13.1% ± 4.1
same,"Percent survival of L3, normalized to vehicle control","[3]; 30 µg/mL (maximum dose tested), 24 h, mean ± SD",3.4% ± 3.3
same,IC50 (nonlinear regression of percent survival vs log concentration),[3]; 24 h survival,2.81 µg/mL
same,Greater effectiveness than drugs from other classes in reducing fecal egg count,MADR A. caninum,at least 50%
ivermectin,Normalized survival of L3,"[1]; BCR L3, low dose 4 µg/mL, 24 h, room temperature, dark, mean ± SD",54.2±11.4%
same,Difference in mean survival between BCR and WMD,[1],39.0 ± 3.0%
same,Difference in mean survival between BCR and WMD,[1]; listed as ivermectin,approximately 40%
same,Cmax,"[2]; typical therapeutic dose 150–200 mg/kg, single oral administration",38 to 46 ng/mL
same,Normalized survival of L3,"[3]; low dose 4 µg/mL, 24 h, room temperature, dark, mean ± SD",14.9±9.7%
same,Aqueous solubility,[4],< 10 µg/mL
penitrem A,Percent survival of L3 co-incubated with emodepside,[5],78.2% ± 13.8
same,Percent survival of L3 co-incubated with emodepside,[6],29.8% ± 11.5
